Source: article PMC9781827, “Isolation and Identification of Anti-Inflammatory Peptide from Goose Blood Hydrolysate to Ameliorate LPS-Mediated Inflammation and Oxidative Stress in RAW264.7 Macrophages” (Molecules, 2022)
Ends that are not written are not given here.

What was measured:
pepsin [1] = system: T1, pepsin; assay: Simulated gastric digestion with pepsin, products analysed by LC–MS/MS; assay type: in vitro ADME, porcine; conditions: pig, simulated gastric fluid; simulated gastric juice (pepsin from porcine gastric mucosa, NaCl), pH 3.0, 200 μg/mL peptide, 2 h, 37 °C; LC–MS/MS; read-out: share of IVYPWTQR split into smaller fragments after pepsin treatment
T1 construct: purchased Shanghai Aladdin Biochemical Technology Co., Ltd; host or cells: porcine gastric mucosa
Method: (§1) The fractionation of the peak with the highest anti-inflammatory activity obtained from RP-LC was further identified by LC-MS/MS equipped with a reversed phase BEH C18 analytical column (1.7 μm, 2.1 × 100 mm, Waters Inc., Milford, MA, USA). The fraction of peptide with the highest anti-inflammatory activity obtained from RP-LC was further Identified by LC-MS/MS. Eluent A: 0.065% TFA in 2% acetonitrile; Eluent B: 0.050% TFA in 80% acetonitrile. The gradient elution parameters: 0–30 min, 100% eluent A; 30–60 min, 30–80% eluent B; 60–80 min, 100% eluent A. The above flow rates were 0.5 mL/min. The fractions were detected at 280 nm by an ultraviolet detector. The flow entered directly into the MS/MS system (MALDI SYNAPT Q-TOF MS, Waters, Inc. Milford, MA, USA) for multiple reaction measurement. The recording mass range of precursor ions was m/z 50–4000. Nitrogen was used as a collision gas. Capillary voltage was set at 3.5 kV and cone voltage at 20 V. Source block temperature was set at 100 °C and desolvation temperature at 250 °C. Collision energy and detector voltage were 15 and 1600 V, respectively. The desolvation and cone gas flow were 500 and 50 L/h, respectively. The N-terminal fragment ion series (B series) and the C-terminal fragment ion series (Y series) were analysed. The amino acid sequence of the peptide was obtained by comprehensive analysis of B and Y ion series through Mass Lynx V4.1 operating system.
(§2) The stability of GBP in response to pepsin and trypsin in the simulation of GI digestion in vitro was examined based on Xie et al.. First, 2 g of NaCl and 3.2 g of pepsin from porcine gastric mucosa (Purity: 1:3000, CAS: 9001-75-6, Shanghai Aladdin Biochemical Technology Co., Ltd., Shanghai, China) were added to 800 mL of ultrapure water. The pH of the solution was adjusted with 6 mol/L hydrochloric acid to 3.0, and the volume was adjusted with ultrapure water to 1 L (as simulated gastric juice). […]

pepsin [2] = biological target: T2, pepsin (Sus scrofa, UniProt P00791); assay: as above; assay type: in vitro ADME, porcine; conditions: 37 °C
T2 construct: purchased Shanghai Aladdin Biochemical Technology Co., Ltd; host or cells: porcine gastric mucosa
Method: as §1, §2

trypsin = biological target: T3, trypsin (Sus scrofa, UniProt P00761); assay: Simulated intestinal digestion with trypsin; assay type: in vitro ADME; conditions: simulated intestinal fluid (trypsin from porcine pancreas, bile salt), pH 7.6, 2 h, 37 °C, after pepsin step; judged by unchanged cytokine levels
T3 construct: purchased Shanghai Aladdin Biochemical Technology Co., Ltd; host or cells: porcine pancreas
Method: The stability of GBP in response to pepsin and trypsin in the simulation of GI digestion in vitro was examined based on Xie et al.. First, 2 g of NaCl and 3.2 g of pepsin from porcine gastric mucosa (Purity: 1:3000, CAS: 9001-75-6, Shanghai Aladdin Biochemical Technology Co., Ltd., Shanghai, China) were added to 800 mL of ultrapure water. The pH of the solution was adjusted with 6 mol/L hydrochloric acid to 3.0, and the volume was adjusted with ultrapure water to 1 L (as simulated gastric juice). Then, 0.68 g of potassium dihydrogen phosphate and 7.7 mL sodium hydroxide solution (0.2 mol/L) were dissolved in 70 mL of ultrapure water; 1 g of trypsin from porcine pancreas (Purity: ≥250 units/mg, CAS: […], Shanghai Aladdin Biochemical Technology Co., Ltd., Shanghai, China) and 6 g of bile salt were added and dissolved. The above solution was mixed and supplemented with ultrapure water to 1 L. Finally, the pH of the mixed solution was adjusted to 7.6 with sodium hydroxide solution (0.2 mol/L) (as simulated intestinal fluid). The 200 μg/mL peptide solution was adjusted to a pH of 3.0 with a 1 mol/L HCl solution, and 5 mL of simulated gastric juice was added to the solution and the reaction was carried out for 2 h in 37 °C water bath. Then, the simulated gastric digestion was terminated by being heated at 100 °C for 10 min. […]

T2 sequence (P00791 60-385): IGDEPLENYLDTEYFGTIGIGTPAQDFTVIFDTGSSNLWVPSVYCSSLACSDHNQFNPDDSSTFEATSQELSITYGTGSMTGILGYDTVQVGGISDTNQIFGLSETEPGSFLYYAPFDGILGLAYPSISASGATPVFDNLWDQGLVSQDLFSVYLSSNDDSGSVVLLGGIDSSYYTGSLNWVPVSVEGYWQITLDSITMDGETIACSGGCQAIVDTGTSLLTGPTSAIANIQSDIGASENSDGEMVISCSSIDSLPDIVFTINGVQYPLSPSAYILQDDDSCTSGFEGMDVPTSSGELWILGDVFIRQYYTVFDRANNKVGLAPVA
T3 sequence (P00761 9-231): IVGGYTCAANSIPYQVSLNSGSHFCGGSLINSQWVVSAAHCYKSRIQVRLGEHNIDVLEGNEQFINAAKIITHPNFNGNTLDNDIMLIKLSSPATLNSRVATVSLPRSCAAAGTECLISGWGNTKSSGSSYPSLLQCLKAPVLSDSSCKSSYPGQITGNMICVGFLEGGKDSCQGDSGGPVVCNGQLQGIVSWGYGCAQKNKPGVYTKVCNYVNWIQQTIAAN

Substance	metabolised at 2 h, 200 μg/mL (pepsin [1]) [%]	stability against pepsin (pepsin [2]; simulated gastric digestion, pepsin, pH 3.0, 2 h)	stability against trypsin (trypsin)	share of fragment formed from IVYPWTQR after pepsin treatment (pepsin [2]; simulated gastric juice (pepsin), pH 3.0, 200 μg/mL peptide, 2 h, LC–MS/MS) [%]
IVYPWTQR [IVYPWTQR, IIe-Val-Tyr-Pro-Trp-Thr-Gln-Arg]	~45.2	sensitive to pepsin	robustly resists trypsin	
YPWTQR [fragment of IVYPWTQR after pepsin treatment]				25.19
